Test system: Myo5 SH3 domain
Assay: SPOT analysis of cellulose-bound peptides (WISE), Myo5 SH3 domain (Dataset S4)
Type: binding, Saccharomyces cerevisiae
Settings: for The normalized value in BLU units: Myo5 SH3 domain
[1] = SPOT analysis of membrane-synthesized peptides probed with Myo5 SH3 domain, normalized value
[2] = SPOT analysis of cellulose-bound peptides probed with Myo5 SH3 domain, normalized value
[3] = SPOT analysis of membrane-bound peptides, normalized value (see methods)
[4] = SPOT analysis of cellulose-bound 14-mer yeast proteome peptides, normalized value, mean where the peptide was synthesized more than once

For ETTTRETPLPPIPA, the “The normalized value in BLU units (SPOT analysis, Myo5 SH3)” value [1] was 178.3 BLU.

With REVDLPIPAQPGPP the “The normalized value in BLU units (SPOT analysis, Myo5 SH3)” value [2] was 114.0 BLU.

WLDEKRIPSTPVDY was tested, and the “The normalized value in BLU units” value [3] was 240.0 BLU.

With NYHHRETPPPPPSN the “The normalized value in BLU units (SPOT analysis, Myo5 SH3)” value [1] was 317.8 BLU.

With KPLNLSKPISPPPS the “The normalized value in BLU units” value [4] was 254.3 BLU.

With FFQLMQSPSLPLLM the “The normalized value in BLU units” value [4] was 829.6 BLU.

With GIMIKAKPSSPYTY the “The normalized value in BLU units (SPOT analysis, Myo5 SH3)” value [1] was 235.9 BLU.

For VNIGRRSPYLPLQP, the “The normalized value in BLU units (SPOT analysis, Myo5 SH3)” value [1] was 476.3 BLU.

VPDQLLTPLQPYTI was tested, and the “The normalized value in BLU units (SPOT analysis, Myo5 SH3)” value [2] was 168.3 BLU.

For VASSRTEPSTPSRP, the “The normalized value in BLU units” value [3] was 178.5 BLU.

In the case of KSIPRTKPNVPPLQ, the “The normalized value in BLU units” value [3] is reported as 343.4 BLU.

With LLAEHNGPKLPHIP the “The normalized value in BLU units” value [4] was 198.5 BLU.

With PPLPRAPPVPPATF the “The normalized value in BLU units (SPOT analysis, Myo5 SH3)” value [1] was 35914.7 BLU.

With ASKHKMFPFNPAKI the “The normalized value in BLU units” value [3] was 953.1 BLU.

For VARPLSVPGSPRDL, the “The normalized value in BLU units (SPOT analysis, Myo5 SH3)” value [2] was 186.0 BLU.

For GPLLLTVPELPEAD, the “The normalized value in BLU units” value [4] was 162.3 BLU.

In the case of AQKLKLLPEEPFQR, the “The normalized value in BLU units” value [3] is reported as 400.9 BLU.

For DLSLRYAPNLPRVI, the “The normalized value in BLU units” value [3] was 249.6 BLU.

With DELLLMSPELPADL the “The normalized value in BLU units (SPOT analysis, Myo5 SH3)” value [2] was 16.0 BLU.

With YENCHSLPLDPQSP the “The normalized value in BLU units” value [4] was 121.9 BLU.

VFLRLISPTRPSLE was tested, and the “The normalized value in BLU units (SPOT analysis, Myo5 SH3)” value [2] was 1635.5 BLU.

NLAPFTQPDFPFQT was tested, and the “The normalized value in BLU units” value [4] was 81.4 BLU.

In the case of VLFMKGTPEFPKCG, the “The normalized value in BLU units (SPOT analysis, Myo5 SH3)” value [1] is reported as 212.8 BLU.

In the case of MTVPRNRPMAPFGT, the “The normalized value in BLU units” value [4] is reported as 595.6 BLU.

In the case of SFVTKYLPAAPVGS, the “The normalized value in BLU units (SPOT analysis, Myo5 SH3)” value [1] is reported as 214.9 BLU.

In the case of VPIDKKSPFYPGLD, the “The normalized value in BLU units” value [3] is reported as 150.4 BLU.

In the case of GLIGMNDPPRPNVK, the “The normalized value in BLU units” value [4] is reported as 115.5 BLU.

With PHFAKHSPDSPRTS the “The normalized value in BLU units” value [3] was 236.2 BLU.

With ALKEMTHPIKPSAQ the “The normalized value in BLU units (SPOT analysis, Myo5 SH3)” value [2] was 261.0 BLU.

In the case of GPEFWISPDTPLKF, the “The normalized value in BLU units (SPOT analysis, Myo5 SH3)” value [2] is reported as 87.4 BLU.

With TINSRFYPPIPISE the “The normalized value in BLU units (SPOT analysis, Myo5 SH3)” value [1] was 76.4 BLU.

PTANKYAPVSPTVQ was tested, and the “The normalized value in BLU units” value [3] was 191.4 BLU.

FGSNKNNPVPPELT was tested, and the “The normalized value in BLU units (SPOT analysis, Myo5 SH3)” value [1] was 171.5 BLU.

In the case of FESTLPIPTYPREG, the “The normalized value in BLU units (SPOT analysis, Myo5 SH3)” value [2] is reported as 122.0 BLU.

For NEKLHETPHLPSPV, the “The normalized value in BLU units (SPOT analysis, Myo5 SH3)” value [2] was 109.3 BLU.

With RRIRKEHPGEPNVI the “The normalized value in BLU units” value [3] was 308.3 BLU.

With KLALHQYPNFPSEG the “The normalized value in BLU units” value [4] was 130.3 BLU.

With HFLAYTNPRAPGKL the “The normalized value in BLU units (SPOT analysis, Myo5 SH3)” value [2] was 111.7 BLU.

IEFDLSKPFTPFQQ was tested, and the “The normalized value in BLU units (SPOT analysis, Myo5 SH3)” value [2] was 134.1 BLU.

With KRNSKHAPFIPVKP the “The normalized value in BLU units” value [3] was 381.6 BLU.

In the case of EKELKEGPSSPASI, the “The normalized value in BLU units” value [3] is reported as 208.1 BLU.

GDHPKGPPPPPPPD was tested, and the “The normalized value in BLU units (SPOT analysis, Myo5 SH3)” value [1] was 40130.9 BLU.

With NTLLKVVPQEPTAV the “The normalized value in BLU units (SPOT analysis, Myo5 SH3)” value [1] was 154.4 BLU.

In the case of EAGDFEQPKGPAGA, the “The normalized value in BLU units (SPOT analysis, Myo5 SH3)” value [2] is reported as 49.8 BLU.

For RYPFRMIPELPPKR, the “The normalized value in BLU units (SPOT analysis, Myo5 SH3)” value [1] was 3574.9 BLU.

In the case of LVGLKYEPLFPYFA, the “The normalized value in BLU units” value [3] is reported as 124.8 BLU.

IARPLSVPGSPKVR was tested, and the “The normalized value in BLU units (SPOT analysis, Myo5 SH3)” value [2] was 382.9 BLU.

In the case of VFSLMNCPAYPDVQ, the “The normalized value in BLU units (SPOT analysis, Myo5 SH3)” value [2] is reported as 153.4 BLU.

For ILEGKFEPVIPREW, the “The normalized value in BLU units” value [3] was 93.2 BLU.

LKDPKSFPPPPLKP was tested, and the “The normalized value in BLU units” value [3] was 252.9 BLU.

WENFKEEPGEPLSR was tested, and the “The normalized value in BLU units (SPOT analysis, Myo5 SH3)” value [1] was 96.8 BLU.

KLGRFTNPQQPRED was tested, and the “The normalized value in BLU units (SPOT analysis, Myo5 SH3)” value [2] was 227.3 BLU.

For ILERKNIPRQPAIR, the “The normalized value in BLU units” value [3] was 602.9 BLU.

For TKRQRGEPSEPQQD, the “The normalized value in BLU units” value [3] was 27.7 BLU.

In the case of AALVKFVPSKPMCV, the “The normalized value in BLU units” value [3] is reported as 280.9 BLU.

In the case of PFLIKFTPKFPQSI, the “The normalized value in BLU units (SPOT analysis, Myo5 SH3)” value [1] is reported as 974.5 BLU.

TLKKFVLPCLPRKN was tested, and the “The normalized value in BLU units (SPOT analysis, Myo5 SH3)” value [2] was 504.4 BLU.

In the case of LAGIRLVPVLPILL, the “The normalized value in BLU units (SPOT analysis, Myo5 SH3)” value [1] is reported as 152.2 BLU.

For PEVLMDQPYSPLSD, the “The normalized value in BLU units (SPOT analysis, Myo5 SH3)” value [2] was 78.7 BLU.

For RTFFKLPPNLPEAE, the “The normalized value in BLU units” value [3] was 2608.2 BLU.

APLLYSCPSEPMAY was tested, and the “The normalized value in BLU units” value [4] was 83.1 BLU.

For LWRPRIVPILPYIT, the “The normalized value in BLU units” value [4] was 1051.3 BLU.

TDLFKPLPEPPTEL was tested, and the “The normalized value in BLU units (SPOT analysis, Myo5 SH3)” value [1] was 23.4 BLU.

In the case of KTRNKPKPLWPQVK, the “The normalized value in BLU units (SPOT analysis, Myo5 SH3)” value [1] is reported as 261.8 BLU.

For ISADKGFPLIPSGY, the “The normalized value in BLU units (SPOT analysis, Myo5 SH3)” value [1] was 113.3 BLU.

With SEAKRKFPEAPEVP the “The normalized value in BLU units” value [4] was 392.6 BLU.

In the case of AELMLRIPYLPGQN, the “The normalized value in BLU units (SPOT analysis, Myo5 SH3)” value [2] is reported as 236.4 BLU.

For SPSTMDFPKLPSFQ, the “The normalized value in BLU units (SPOT analysis, Myo5 SH3)” value [2] was 466.9 BLU.

LDSMKNLPLNPSKK was tested, and the “The normalized value in BLU units” value [4] was 268.3 BLU.

FFYRRDIPDVPITT was tested, and the “The normalized value in BLU units” value [4] was 138.0 BLU.

KKNKKKVPLNPLAK was tested, and the “The normalized value in BLU units” value [4] was 522.6 BLU.

Source: article PMC314469, “Protein Interaction Networks by Proteome Peptide Scanning” (PLoS Biology, 2004)
